In patent US10448639B2, “Fungicidal pyrazoles” (FMC CORPORATION, priority 2009, dated 2019):

System: Plasmopara viticola
Test: Test A: grape downy mildew, curative spray on inoculated grape seedlings, visual disease rating
Assay type: in vivo
Conditions: 100 = 100% disease control, 0 = no disease control relative to controls
Text: Upon removal, visual disease ratings were made. […] A dash (-) indicates no test results.

Structure (SMILES)	Test A disease control rating [%]
Cc1nn(C)c(N(CC#N)c2c(F)cc(F)cc2F)c1-c1ccc(F)cc1Cl [compound 326]	8

Same assay, conditions: curative spray, 100 = 100% disease control, 0 = no control relative to controls

Structure (SMILES)	Test A rating (% disease control) [%]
Cc1nn(C)c(Nc2ccc(F)c(Cl)c2)c1-c1ccc(F)cc1Cl [compound 7]	29
Cc1nn(C)c(N(C)c2cc(F)cc(F)c2)c1-c1ccc(Cl)cc1 [compound 6]	65
Cc1nn(C)c(Nc2cccc(F)c2)c1-c1ccc(F)cc1Cl [compound 8]	55
Cc1nn(C)c(N(C)c2cccc(Cl)c2)c1-c1ccc(F)cc1F [compound 3]	6
Cc1nn(C)c(Nc2ccc(F)cc2F)c1-c1ccc(Cl)cc1 [compound 4]	29
COc1cc(Nc2c(-c3ccc(F)cc3F)c(C)nn2C)cc(OC)c1 [compound 2]	8
COc1cc(Nc2c(-c3c(F)cccc3F)c(C)nn2C)cc(OC)c1 [compound 37]	0
Cc1nn(C)c(Nc2cc(F)cc(F)c2)c1-c1ccc(Cl)cc1 [compound 5]	36
Cc1nn(C)c(Nc2cccc(Cl)c2)c1-c1ccc(F)cc1F [Compound 1, N-(3-Chlorophenyl)-4-(2,4-difluorophenyl)-1,3-dimethyl-1H-pyrazol-5-amine]	0

System: Phytophthora infestans
Test: not given
Assay type: in vivo
Conditions: tomato late blight, preventive spray; 100 = 100% disease control, 0 = no control

Structure (SMILES)	Test D rating (% disease control) [%]
Cc1nn(C)c(Nc2ccc(F)c(Cl)c2)c1-c1ccc(F)cc1Cl [compound 7]	0
Cc1nn(C)c(N(C)c2cc(F)cc(F)c2)c1-c1ccc(Cl)cc1 [compound 6]	0
Cc1nn(C)c(Nc2cccc(F)c2)c1-c1ccc(F)cc1Cl [compound 8]	0
Cc1nn(C)c(N(C)c2cccc(Cl)c2)c1-c1ccc(F)cc1F [compound 3]	9
Cc1nn(C)c(Nc2ccc(F)cc2F)c1-c1ccc(Cl)cc1 [compound 4]	0
COc1cc(Nc2c(-c3ccc(F)cc3F)c(C)nn2C)cc(OC)c1 [compound 2]	0
COc1cc(Nc2c(-c3c(F)cccc3F)c(C)nn2C)cc(OC)c1 [compound 37]	0
Cc1nn(C)c(Nc2cc(F)cc(F)c2)c1-c1ccc(Cl)cc1 [compound 5]	0
Cc1nn(C)c(Nc2cccc(Cl)c2)c1-c1ccc(F)cc1F [Compound 1, N-(3-Chlorophenyl)-4-(2,4-difluorophenyl)-1,3-dimethyl-1H-pyrazol-5-amine]	0

Same assay, conditions: tomato late blight; 100 = 100% disease control, 0 = no disease control relative to controls

Structure (SMILES)	Test D disease control rating [%]
Cc1nn(C)c(N(CC#N)c2c(F)cc(F)cc2F)c1-c1ccc(F)cc1Cl [compound 326]	0

System: Rhizoctonia solani
Test: Test E: turf brown patch, preventive spray on creeping bent grass (Agrostis sp.) seedlings, disease rating
Assay type: in vivo
Conditions: 100 = 100% disease control, 0 = no disease control relative to controls
Text: A dash (-) indicates no test results.

Structure (SMILES)	Test E disease control rating [%]
Cc1nn(C)c(N(CC#N)c2c(F)cc(F)cc2F)c1-c1ccc(F)cc1Cl [compound 326]	99

Same assay, conditions: preventive spray, 100 = 100% disease control, 0 = no control

Structure (SMILES)	Test E rating (% disease control) [%]
Cc1nn(C)c(Nc2ccc(F)c(Cl)c2)c1-c1ccc(F)cc1Cl [compound 7]	63
Cc1nn(C)c(N(C)c2cc(F)cc(F)c2)c1-c1ccc(Cl)cc1 [compound 6]	0
Cc1nn(C)c(Nc2cccc(F)c2)c1-c1ccc(F)cc1Cl [compound 8]	99
Cc1nn(C)c(N(C)c2cccc(Cl)c2)c1-c1ccc(F)cc1F [compound 3]	0
Cc1nn(C)c(Nc2ccc(F)cc2F)c1-c1ccc(Cl)cc1 [compound 4]	0
COc1cc(Nc2c(-c3ccc(F)cc3F)c(C)nn2C)cc(OC)c1 [compound 2]	0
COc1cc(Nc2c(-c3c(F)cccc3F)c(C)nn2C)cc(OC)c1 [compound 37]	0
Cc1nn(C)c(Nc2cc(F)cc(F)c2)c1-c1ccc(Cl)cc1 [compound 5]	0
Cc1nn(C)c(Nc2cccc(Cl)c2)c1-c1ccc(F)cc1F [Compound 1, N-(3-Chlorophenyl)-4-(2,4-difluorophenyl)-1,3-dimethyl-1H-pyrazol-5-amine]	47

System: Puccinia recondita f. sp. tritici
Test: Test I: wheat leaf rust, preventive spray on wheat seedlings, visual disease rating
Conditions: 192 h, read-out: Test I rating (% disease control)

Structure (SMILES)	pest or weed control at 200 µg/mL [%]
Cc1nn(C)c(Nc2cccc(Cl)c2)c1-c1ccc(F)cc1F [Compound 1, N-(3-Chlorophenyl)-4-(2,4-difluorophenyl)-1,3-dimethyl-1H-pyrazol-5-amine]	0

Same assay, conditions: wheat leaf rust, preventive spray; 100 = 100% disease control, 0 = no control

Structure (SMILES)	Test I rating (% disease control) [%]
Cc1nn(C)c(Nc2ccc(F)c(Cl)c2)c1-c1ccc(F)cc1Cl [compound 7]	74
Cc1nn(C)c(N(C)c2cc(F)cc(F)c2)c1-c1ccc(Cl)cc1 [compound 6]	0
Cc1nn(C)c(Nc2cccc(F)c2)c1-c1ccc(F)cc1Cl [compound 8]	97
Cc1nn(C)c(N(C)c2cccc(Cl)c2)c1-c1ccc(F)cc1F [compound 3]	0
Cc1nn(C)c(Nc2ccc(F)cc2F)c1-c1ccc(Cl)cc1 [compound 4]	53
COc1cc(Nc2c(-c3ccc(F)cc3F)c(C)nn2C)cc(OC)c1 [compound 2]	0
COc1cc(Nc2c(-c3c(F)cccc3F)c(C)nn2C)cc(OC)c1 [compound 37]	0
Cc1nn(C)c(Nc2cc(F)cc(F)c2)c1-c1ccc(Cl)cc1 [compound 5]	0

Same assay, conditions: wheat leaf rust, sprayed the day before inoculation; 100 = 100% disease control, 0 = no disease control relative to controls

Structure (SMILES)	Test I disease control rating [%]
Cc1nn(C)c(N(CC#N)c2c(F)cc(F)cc2F)c1-c1ccc(F)cc1Cl [compound 326]	99

System: Botrytis cinerea
Test: Test B: tomato Botrytis, preventive spray on tomato seedlings, visual disease rating
Conditions: Botrytis cinerea, in Solanum lycopersicum, 120 h, read-out: Test B rating (% disease control)

Structure (SMILES)	pest or weed control at 200 µg/mL [%]
Cc1nn(C)c(Nc2cccc(Cl)c2)c1-c1ccc(F)cc1F [Compound 1, N-(3-Chlorophenyl)-4-(2,4-difluorophenyl)-1,3-dimethyl-1H-pyrazol-5-amine]	99

Same assay, conditions: tomato Botrytis, preventive spray; 100 = 100% disease control, 0 = no control

Structure (SMILES)	Test B rating (% disease control) [%]
Cc1nn(C)c(Nc2ccc(F)c(Cl)c2)c1-c1ccc(F)cc1Cl [compound 7]	99
Cc1nn(C)c(N(C)c2cc(F)cc(F)c2)c1-c1ccc(Cl)cc1 [compound 6]	10
Cc1nn(C)c(Nc2cccc(F)c2)c1-c1ccc(F)cc1Cl [compound 8]	99
Cc1nn(C)c(N(C)c2cccc(Cl)c2)c1-c1ccc(F)cc1F [compound 3]	0
Cc1nn(C)c(Nc2ccc(F)cc2F)c1-c1ccc(Cl)cc1 [compound 4]	87
COc1cc(Nc2c(-c3ccc(F)cc3F)c(C)nn2C)cc(OC)c1 [compound 2]	1
COc1cc(Nc2c(-c3c(F)cccc3F)c(C)nn2C)cc(OC)c1 [compound 37]	0
Cc1nn(C)c(Nc2cc(F)cc(F)c2)c1-c1ccc(Cl)cc1 [compound 5]	0

Same assay, conditions: tomato Botrytis; 100 = 100% disease control, 0 = no disease control relative to controls

Structure (SMILES)	Test B disease control rating [%]
Cc1nn(C)c(N(CC#N)c2c(F)cc(F)cc2F)c1-c1ccc(F)cc1Cl [compound 326]	99

System: Septoria tritici
Test: Test G: wheat leaf blotch, preventive spray on wheat seedlings, visual disease rating
Conditions: Zymoseptoria tritici, in Triticum aestivum, 504 h, read-out: Test G rating (% disease control)

Structure (SMILES)	pest or weed control at 200 µg/mL [%]
Cc1nn(C)c(Nc2cccc(Cl)c2)c1-c1ccc(F)cc1F [Compound 1, N-(3-Chlorophenyl)-4-(2,4-difluorophenyl)-1,3-dimethyl-1H-pyrazol-5-amine]	99

Same assay, conditions: wheat leaf blotch, preventive spray; 100 = 100% disease control, 0 = no control

Structure (SMILES)	Test G rating (% disease control) [%]
Cc1nn(C)c(Nc2ccc(F)c(Cl)c2)c1-c1ccc(F)cc1Cl [compound 7]	100
Cc1nn(C)c(N(C)c2cc(F)cc(F)c2)c1-c1ccc(Cl)cc1 [compound 6]	0
Cc1nn(C)c(Nc2cccc(F)c2)c1-c1ccc(F)cc1Cl [compound 8]	100
Cc1nn(C)c(N(C)c2cccc(Cl)c2)c1-c1ccc(F)cc1F [compound 3]	13
Cc1nn(C)c(Nc2ccc(F)cc2F)c1-c1ccc(Cl)cc1 [compound 4]	98
COc1cc(Nc2c(-c3ccc(F)cc3F)c(C)nn2C)cc(OC)c1 [compound 2]	0
COc1cc(Nc2c(-c3c(F)cccc3F)c(C)nn2C)cc(OC)c1 [compound 37]	3
Cc1nn(C)c(Nc2cc(F)cc(F)c2)c1-c1ccc(Cl)cc1 [compound 5]	0

Same assay, conditions: wheat leaf blotch, sprayed the day before inoculation; 100 = 100% disease control, 0 = no disease control relative to controls

Structure (SMILES)	Test G disease control rating [%]
Cc1nn(C)c(N(CC#N)c2c(F)cc(F)cc2F)c1-c1ccc(F)cc1Cl [compound 326]	100

System: Alternaria solani
Test: Test C: tomato early blight, preventive spray on tomato seedlings, visual disease rating
Conditions: Alternaria solani, in Solanum lycopersicum, 168 h, read-out: Test C rating (% disease control)

Structure (SMILES)	pest or weed control at 200 µg/mL [%]
Cc1nn(C)c(Nc2cccc(Cl)c2)c1-c1ccc(F)cc1F [Compound 1, N-(3-Chlorophenyl)-4-(2,4-difluorophenyl)-1,3-dimethyl-1H-pyrazol-5-amine]	0

Same assay, conditions: tomato early blight, preventive spray; 100 = 100% disease control, 0 = no control

Structure (SMILES)	Test C rating (% disease control) [%]
Cc1nn(C)c(Nc2ccc(F)c(Cl)c2)c1-c1ccc(F)cc1Cl [compound 7]	0
Cc1nn(C)c(N(C)c2cc(F)cc(F)c2)c1-c1ccc(Cl)cc1 [compound 6]	23
Cc1nn(C)c(Nc2cccc(F)c2)c1-c1ccc(F)cc1Cl [compound 8]	54
Cc1nn(C)c(N(C)c2cccc(Cl)c2)c1-c1ccc(F)cc1F [compound 3]	25
Cc1nn(C)c(Nc2ccc(F)cc2F)c1-c1ccc(Cl)cc1 [compound 4]	46
COc1cc(Nc2c(-c3ccc(F)cc3F)c(C)nn2C)cc(OC)c1 [compound 2]	0
COc1cc(Nc2c(-c3c(F)cccc3F)c(C)nn2C)cc(OC)c1 [compound 37]	0
Cc1nn(C)c(Nc2cc(F)cc(F)c2)c1-c1ccc(Cl)cc1 [compound 5]	25

Same assay, conditions: tomato early blight; 100 = 100% disease control, 0 = no disease control relative to controls

Structure (SMILES)	Test C disease control rating [%]
Cc1nn(C)c(N(CC#N)c2c(F)cc(F)cc2F)c1-c1ccc(F)cc1Cl [compound 326]	99

System: Erysiphe graminis f sp. tritici
Test: Test J: wheat powdery mildew, preventive spray on wheat seedlings, visual disease rating
Conditions: Blumeria graminis, in Triticum aestivum, 192 h, read-out: Test J rating (% disease control)

Structure (SMILES)	pest or weed control at 200 µg/mL [%]
Cc1nn(C)c(Nc2cccc(Cl)c2)c1-c1ccc(F)cc1F [Compound 1, N-(3-Chlorophenyl)-4-(2,4-difluorophenyl)-1,3-dimethyl-1H-pyrazol-5-amine]	98

Same assay, conditions: wheat powdery mildew, preventive spray; 100 = 100% disease control, 0 = no control

Structure (SMILES)	Test J rating (% disease control) [%]
Cc1nn(C)c(Nc2ccc(F)c(Cl)c2)c1-c1ccc(F)cc1Cl [compound 7]	92
Cc1nn(C)c(N(C)c2cc(F)cc(F)c2)c1-c1ccc(Cl)cc1 [compound 6]	93
Cc1nn(C)c(Nc2cccc(F)c2)c1-c1ccc(F)cc1Cl [compound 8]	99
Cc1nn(C)c(N(C)c2cccc(Cl)c2)c1-c1ccc(F)cc1F [compound 3]	99
Cc1nn(C)c(Nc2ccc(F)cc2F)c1-c1ccc(Cl)cc1 [compound 4]	97
COc1cc(Nc2c(-c3ccc(F)cc3F)c(C)nn2C)cc(OC)c1 [compound 2]	0
COc1cc(Nc2c(-c3c(F)cccc3F)c(C)nn2C)cc(OC)c1 [compound 37]	0
Cc1nn(C)c(Nc2cc(F)cc(F)c2)c1-c1ccc(Cl)cc1 [compound 5]	0

Same assay, conditions: wheat powdery mildew, sprayed the day before inoculation; 100 = 100% disease control, 0 = no disease control relative to controls

Structure (SMILES)	Test J disease control rating [%]
Cc1nn(C)c(N(CC#N)c2c(F)cc(F)cc2F)c1-c1ccc(F)cc1Cl [compound 326]	94

System: Septoria nodorum
Test: Test F: Septoria glume blotch, preventive spray on wheat seedlings, visual disease rating
Conditions: Parastagonospora nodorum, in Triticum aestivum, 192 h, read-out: Test F rating (% disease control)
Text: General protocol for preparing test suspensions for Tests A-J: the test compounds were first dissolved in acetone in an amount equal to 3% of the final volume and then suspended at the desired concentration (in ppm) in acetone and purified water (50/50 mix by volume) containing 250 ppm of the surfactant Trem® 014 (polyhydric alcohol esters). The resulting test suspensions were then used in Tests A-J. Spraying a 200 ppm test suspension to the point of run-off on the test plants was the equivalent of a rate of 500 g/ha. Unless otherwise indicated, the rating values indicate a 200 ppm test suspension was used. (An asterisk “*” next to the rating value indicates a 40 ppm test suspension was used.)
The test suspension was sprayed to the point of run-off on wheat seedlings. The following day the seedlings were inoculated with a spore suspension of Septoria nodorum (the causal agent of Septoria glume blotch) and incubated in a saturated atmosphere at 24° C. for 48 h, and then moved to a growth chamber at 20° C. for 6 days, after which time visual disease ratings were made.

Structure (SMILES)	pest or weed control at 200 µg/mL [%]
Cc1nn(C)c(Nc2cccc(Cl)c2)c1-c1ccc(F)cc1F [Compound 1, N-(3-Chlorophenyl)-4-(2,4-difluorophenyl)-1,3-dimethyl-1H-pyrazol-5-amine]	0

Same assay, conditions: Septoria glume blotch on wheat, preventive spray; 100 = 100% disease control, 0 = no control

Structure (SMILES)	Test F rating (% disease control) [%]
Cc1nn(C)c(Nc2ccc(F)c(Cl)c2)c1-c1ccc(F)cc1Cl [compound 7]	0
Cc1nn(C)c(N(C)c2cc(F)cc(F)c2)c1-c1ccc(Cl)cc1 [compound 6]	0
Cc1nn(C)c(Nc2cccc(F)c2)c1-c1ccc(F)cc1Cl [compound 8]	0
Cc1nn(C)c(N(C)c2cccc(Cl)c2)c1-c1ccc(F)cc1F [compound 3]	0
Cc1nn(C)c(Nc2ccc(F)cc2F)c1-c1ccc(Cl)cc1 [compound 4]	0
COc1cc(Nc2c(-c3ccc(F)cc3F)c(C)nn2C)cc(OC)c1 [compound 2]	0
COc1cc(Nc2c(-c3c(F)cccc3F)c(C)nn2C)cc(OC)c1 [compound 37]	0
Cc1nn(C)c(Nc2cc(F)cc(F)c2)c1-c1ccc(Cl)cc1 [compound 5]	0

Same assay, conditions: Septoria glume blotch on wheat; 100 = 100% disease control, 0 = no disease control relative to controls

Structure (SMILES)	Test F disease control rating [%]
Cc1nn(C)c(N(CC#N)c2c(F)cc(F)cc2F)c1-c1ccc(F)cc1Cl [compound 326]	73
